According to patent publication US11198869B2, “Angelman syndrome antisense treatment” (The Texas A&M University System, priority 2017, dated 2021):
Like-named read-outs stand apart in the source and are kept apart here.

Experiments:
IPW = IPW steady state RNA (qRT-PCR) in GABAergic iPSC-derived neurons; details: 10-point dose curve 1 nM-30 μM; 14 DIV to 20 DIV
UBE3A-AS [1] = assay: UBE3A-AS steady state RNA (TaqMan qRT-PCR) in GABAergic iPSC-derived neurons; format: cell-based, human; details: for Difference, UBE3A-AS RNA level / UBE3A-AS RNA levels relative to the control treatment (in words): ASOs 10 μM; for low concentration that significantly reduced UBE3A-AS RNA levels: human iPSC-derived neurons; for Relative Potency: relative to ASO 4.S = 1; for decrease of UBE3A-AS RNA levels: 10 μM
Protocol: Human-specific ASOs were then designed to target this region, which included four ASOs targeting non-polymorphic regions in human and regions conserved (100%) with macaque (Rhesus and Cynomolgus) (Table 7 and FIG. 3A). Human induced pluripotent stem cell (iPSC) neural precursor cells were differentiated into GABAergic neurons for 14 DIV and then treated with a control ASO [ASO-C (10 μM, n=3)], Topotecan [Topo (1 μM, n=2)], and six ASOs targeting UBE3A-AS [ASO-1, ASO-2, ASO-3, ASO-4, ASO-5, and ASO-6 (10 μM, n=3)]. Additionally, an ASO targeting an intronic region downstream of SNORD109B was included (ASO-7). Six days post-treatment (20 DIV), RNA was isolated from the neurons and the steady state RNA levels of UBE3A-AS and UBE3A were estimated relative to the control treatment (FIG. 3B).
The potency of ASO-4 was further examined given its effect on UBE3A-AS RNA levels. GABAergic iPSC-derived neurons were treated at 14 DIV with a 10-point ½ log dose response curve of ASO-4 and Topotecan, as a positive control and for comparisons between treatment [1 nM, 3 nM, 10 nM, 30 nM, 100 nM, 300 nM, 1 μM, 3 μM, 10 μM, and 30 μM (ASO-4, n=6; Topotecan, n=2)]. At 20 DIV, the steady state RNA levels of UBE3A-AS were measured and dose response curves fitted to estimate the IC50 and Emax (i.e., maximum UBE3A-AS inhibition) (Table 9 and FIG. 4A). […]
Additional ASOs targeting the 5′-end of UBE3A-AS were then designed to optimize the target sequences of ASO-4 (ASO-4.1, ASO-4.2, ASO-4.3, and ASO-4.4) as well as two other target regions, ASO-3 (ASO-3.1 and ASO-3.2) and ASO-6 (ASO-6.1) (Table 11). Additionally, ASO-4 was manufactured at two different vendors for comparative purposes (ASO-4.S, Sigma; ASO-4.I, Integrated DNA Technologies). Human iPSC-derived neurons (GABAergic) were treated at 14 DIV with a […] ½ log dose curve of ASO-3.1, ASO-3.2, ASO-4.S, ASO-4.I, ASO-4.1, ASO-4.2, ASO-4.3, ASO-4.4, and ASO-6.1 [30 nM, 100 nM, 300 nM, 1 μM (n=6)]. At 20 DIV, the IC50 and Emax of each ASO was estimated as described above (FIG. 5A-B and Table 12). […] No significant difference was observed between ASO-4.S and ASO-4.I.
The potency of ASO-4 and ASO-6.1 was further examined in iPSC-derived neurons at a later time point in differentiation. GABAergic iPSC-derived neurons were treated at 29 DIV with a 10-point ½ log dose response curve of ASO-4 and ASO-6.1 [1 nM, 3 nM, 10 nM, 30 nM, 100 nM, 300 nM, 1 μM, 3 μM, 10 μM, and 30 μM (n=3)]. At 35 DIV, the IC50 and Emax of each ASO was estimated as described above (FIG. 5C-D and Table 14). The dose response curves of ASO-4 and ASO-6.1 were not similar (Parallelism test: F(3,172)=22.7, p<0.0001).
GABAergic and glutamatergic induced pluripotent stem cell (iPSC) derived neural precursor cells (NRC-100-010-001 and GNC-301-030-001, Cellular Dynamics International, Madison Wis.) were differentiated into neurons according to the manufactures protocol. Briefly, neural precursor cells were thawed and resuspended in chemically defined medium and added to sterile-culture plates coated with poly-D-lysine and laminin. The medium was replaced 24 hr after plating and then one-half of the medium was replaced every 3-5 days afterwards.
For cultured iPSC-derived neurons, RNA isolation and cDNA synthesis were performed using the Cell-to-CT kit (Thermo Fisher Scientific) in a lysate volume of 55 μl.
The steady state RNA levels of target transcripts were measured using TaqMan quantitative reverse-transcription PCR (qRT-PCR) assays. Total reaction volume was 10 uL, including 2 μl of cDNA, 1× Gene Expression Master mix (4369016, Thermo Fisher Scientific, Waltham, Mass.), and 1× TaqMan primer assay (Thermo Fisher Scientific). Cycling conditions were 2 minutes at 50° C., 10 minutes at 95° C., and 40 cycles of 15 seconds at 95° C. and 1 minute at 60° C., with readings taken at the 60° C. step of every cycle. […]

UBE3A-AS [2] = assay: as above; format: cell-based, human; details: for Relative Potency: relative to ASO-4.4.PS.L = 1
[3] = Topo 1 μM, 14 DIV to 20 DIV, ASO-1 minus labelled treatment
[4] = Topo 1 μM, 14 DIV to 20 DIV, ASO-R minus labelled treatment
[5] = Topo 1 μM, treated 14 DIV, RNA 20 DIV, normalized to ASO-C, ASO-C minus labelled treatment
[6] = treated 14 DIV, RNA 20 DIV, 10-point dose curve, 4-parameter logistic (Hill)
[7] = Cluster 1 ASOs, 18 DIV to 24 DIV, parallel model, 4 Parameter logistic (Hill)
[8] = candidate ASOs, 18 DIV to 24 DIV
[9] = candidate ASOs, 18 DIV to 24 DIV, 4-parameter logistic (Hill)
[10] = candidate ASOs, treated 18 DIV, RNA 24 DIV, 10-point dose curve, n=2, full model, 4-parameter logistic (Hill)
[11] = optimized ASOs, 14 DIV to 20 DIV, parallel model, 3-parameter logistic, read-out: IC50 (M), UBE3A-AS
[12] = optimized ASOs, treated 14 DIV, RNA 20 DIV, 5-point dose curve 30 nM-3 μM, full model, 3-parameter logistic, read-out: IC50 Estimate, UBE3A-AS
[13] = treated 29 DIV, RNA 35 DIV, 10-point dose curve, full model, 4-parameter logistic (Hill), read-out: IC50 Estimate, UBE3A-AS
[14] = Topo 1 μM, 14 DIV to 20 DIV, Topo minus labelled treatment
[15] = 14 DIV to 20 DIV, ASO-3 minus labelled treatment
[16] = 14 DIV to 20 DIV, ASO-5 minus labelled treatment
[17] = 14 DIV to 20 DIV, ASO-6 minus labelled treatment

| Compound | effect on IPW RNA levels (in words) (IPW) | 30 μM (Mean), normalized UBE3A-AS RNA level relative to vehicle (UBE3A-AS [1]; treated 14 DIV, RNA 20 DIV) | Difference, UBE3A-AS RNA level (UBE3A-AS [1]; [3]) | Difference, UBE3A-AS RNA level (UBE3A-AS [1]; [4]) | Difference, UBE3A-AS RNA level (UBE3A-AS [1]; [5]) | Emax Estimate (normalized UBE3A-AS RNA level relative to vehicle) (UBE3A-AS [1]; [6]) | IC50 (UBE3A-AS [2]; [7]) [nM] | Relative Potency (UBE3A-AS [2]; Cluster 1 ASOs, parallel model) | 30 μM (Mean), normalized UBE3A-AS RNA level relative to vehicle (UBE3A-AS [2]; [8]) | Emax (normalized UBE3A-AS RNA level relative to vehicle) (UBE3A-AS [2]; [9]) | IC50 (UBE3A-AS [2]; [10]) [nM] | 3 μM (Mean), Emax, normalized UBE3A-AS RNA level relative to vehicle (UBE3A-AS [1]; treated 14 DIV, RNA 20 DIV) | 30 μM (Mean), normalized UBE3A-AS RNA level relative to vehicle (UBE3A-AS [1]; treated 29 DIV, RNA 35 DIV) | low concentration that significantly reduced UBE3A-AS RNA levels (UBE3A-AS [1]) [nM] | IC50 (UBE3A-AS [1]; [11]) [M] | Relative Potency (UBE3A-AS [1]; optimized ASOs, parallel model) | IC50 (UBE3A-AS [1]; [12]) [M] | IC50 (UBE3A-AS [1]; [13]) [M] | Difference, UBE3A-AS RNA level (UBE3A-AS [1]; [14]) | Difference, UBE3A-AS RNA level (UBE3A-AS [1]; [15]) | further results |
| --- | --- | --- | --- | --- | --- | --- | --- | --- | --- | --- | --- | --- | --- | --- | --- | --- | --- | --- | --- | --- | --- |
| CC[C@@]1(O)C(=O)OCc2c1cc1n(c2=O)Cc2cc3c(CN(C)C)c(O)ccc3nc2-1 [Topotecan, reference compound] | significant effect on SNORD116, IPW, SNORD115, and SNORD109A/B RNA levels that was dose dependent | 0.21 | 0.15 | 0.64 | 0.66 | 0.26 |  |  |  |  |  |  |  |  |  |  |  |  |  |  | IC50 (UBE3A-AS [1]; Homo sapiens, Neuron, treated 14 DIV, RNA 20 DIV, 10-point dose curve 1 nM-30 μM, full model, 4-parameter logistic (Hill), read-out: IC50 Estimate (M), UBE3A-AS): 3.37e-08 M |
| A^L*G^L*A^L*a*t*g*g*c*a*c*a*t*c*t*5mC^L*T^L*T^L*G^L (NNNATGGCACATCTNNNN; LNA gapmer, PS, 5-methylcytosine, chemistry not fully specified) [ASO-4.4.PS.L] |  |  |  |  |  |  | 50.3 | 1 | 0.05 | 0.0 | 26.6 |  |  |  |  |  |  |  |  |  | potency relative to the other ASOs of Cluster 1 (UBE3A-AS [1]; Cluster 1 ASOs, 18 DIV to 24 DIV): at least 3 times; Cluster (hierarchical clustering of fitted dose response curves) (UBE3A-AS [1]; candidate ASOs, Cluster 1 representing the 9 most potent ASOs): 1 |
| C^O*U^O*G^O*G^O*t*g*t*c*a*a*c*a*a*g*C^O*C^O*A^O*A^O [ASO-6.1] |  |  |  |  |  |  |  |  |  |  |  | 0.23 | 0.06 | 3 | 7.2e-07 | highest relative potency | 5.2e-07 | 5.17e-07 |  |  | Relative Potency (UBE3A-AS [1]; optimized ASOs, parallel model, listed as ASO 6.1): 2.07; ASO-6.1/ASO-4 ratio: Emax (equivalence test) (UBE3A-AS [1]; treated 29 DIV, RNA 35 DIV): −1.3; ASO-6.1/ASO-4 ratio: IC50 (equivalence test) (UBE3A-AS [1]; treated 29 DIV, RNA 35 DIV): 1.03 |
| C^O*U^O*G^O*G^O-t*g*t*c*a*a*c*a*a*g-C^O*C^O*A^O*A^o [ASO-6.1.PO-1.O] |  |  |  |  |  |  | 199 | 0.3 | 0.04 | −0.1 | 315 |  |  |  |  |  |  |  |  |  | IC50 Ratio relative to ASO-4.4.PS.L (UBE3A-AS [2]; Cluster 1 ASOs, equivalence, two one-sided tests): 0.86; Limit Exceeded (equivalence of IC50 relative to ASO-4.4.PS.L) (UBE3A-AS [2]; Cluster 1 ASOs, two one-sided tests): Lower |
| G^O*U^O*A^O*C^O*U^O*c*t*t*c*c*t*c*a*g*t*C^O*A^O*U^O*C^O*C^O [ASO-2] |  |  | 0.38 | 0.87 | 0.89 |  |  |  |  |  |  |  |  |  |  |  |  |  | 0.23 | 0.10 | Difference, UBE3A-AS RNA level (UBE3A-AS [1]; 14 DIV to 20 DIV, ASO-4 minus labelled treatment): 0.02; Difference, UBE3A-AS RNA level (UBE3A-AS [1]; [16]): 0.18; Difference, UBE3A-AS RNA level (UBE3A-AS [1]; [17]): 0.06; UBE3A-AS RNA levels relative to the control treatment (in words) (UBE3A-AS [1]; treated 14 DIV, RNA 20 DIV): largest effect |
| U^O*A^O*G^O*A^O*A^O*t*g*g*c*a*c*a*t*c*t*C^O*U^O*U^O*G^O*G^O [ASO-4] | significant effect on the RNA levels of IPW, SNORD115, and SNORD109A/B but not in a dose dependent manner | 0.09 | 0.36 | 0.85 | 0.87 | −0.06 |  |  |  |  |  | 0.29 | 0.11 | 3 | 1.49e-06 | highest relative potency | 1.06e-06 | 7.77e-07 | 0.21 | 0.08 | decrease of UBE3A-AS RNA levels (UBE3A-AS [1]; treated 14 DIV, RNA 20 DIV): 87%; decrease of UBE3A-AS RNA levels (UBE3A-AS [1]; treated 59 DIV, RNA 65 DIV): 81%; Difference, UBE3A-AS RNA level (UBE3A-AS [1]; [16]): 0.16; Difference, UBE3A-AS RNA level (UBE3A-AS [1]; [17]): 0.04; UBE3A-AS RNA levels relative to the control treatment (in words) (UBE3A-AS [1]; treated 14 DIV, RNA 20 DIV): largest effect; Relative Potency (UBE3A-AS [1]; optimized ASOs, parallel model, listed as ASO 4.S): 1; ASO-4/Topotecan Emax ratio (equivalence test) (UBE3A-AS [1]; treated 14 DIV, RNA 20 DIV): −4.1; ASO-4/Topotecan IC50 ratio (equivalence test) (UBE3A-AS [1]; treated 14 DIV, RNA 20 DIV): 1.2; IC50 (UBE3A-AS [1]; treated 14 DIV, RNA 20 DIV, 10-point dose curve 1 nM-30 μM, full model, 4-parameter logistic (Hill), read-out: IC50 Estimate (M), UBE3A-AS): 6.13e-07 M; Emax Estimate (normalized UBE3A-AS RNA level relative to vehicle) (UBE3A-AS [1]; treated 29 DIV, RNA 35 DIV, 4-parameter logistic (Hill)): 0.08 |
